Here are results for twelve compounds from patent US4576946A, “Derivatives of 4-methyl 6-phenyl pyridazine active on the central nervous system” (Sanofi, priority 1981, dated 1986).

Each structure is given as a SMILES string. Where a name gives a salt, the structure may show the parent alone.

Data set [1] can be described thus: Acute toxicity (LD50, 24 hours, intraperitoneal). To be noted: mouse, in vivo, ip. How it is done:
(§1) The products to be studied were administered by the intraperitoneal route in increasing doses to batches of 10 mice. The mortality provoked by the products studied was noted during the 24 hours following administration of the product.
From the results obtained, the lethal dose 50, i.e. the dose provoking the death of 50% of the animals studied, is determined for each of the products studied.

The next data set relates to mice. Kind of data set: Convulsivant threshold dose (same experiments as acute toxicity). It is filed as in vivo, mouse. The protocol:
as §1
During the same experiments, the convulsivant threshold dose of the product is also noted, i.e. the minimum dose for which a convulsivant activity begins to show.

Data set [2] concerns ptosis induced by reserpine. The data set is described as follows: Antagonism of the ptosis induced by reserpine. To be noted: reserpine 2 mg/kg i.v., 1 hour; for ED50: Mus musculus, ip. In kind it is in vivo, female mouse CDI (Charles River). How it is done: This test, described by GOURET (Journal de Pharmacologie (Paris), 1973, 4(1), 105-128), was carried out on the female mouse CDI (Charles River) weighing 20±1 g. The reserpine provokes a ptosis one hour after intravenous administration thereof; certain antidepressants oppose this ptosis.
The substances to be studied were administered by the i.p. route. The reserpine is administered simultaneously by the intravenous route at the dose of 2 mg/kg. One hour after administration of the reserpine, the number of animals not presenting ptosis is noted.
This test was carried out on batches of 10 mice, the results are expressed in percentage of animals not presenting ptosis and are the average of at least two experiments.

Data set [3] deals with striatal dopaminergic receptors. The data set is described as follows: Dopaminomimetic activity (rotations after unilateral lesion of nigrostriatal dopaminergic neurones). In kind it is in vivo, mouse. To be noted: 5.3 μmoles/kg i.p. The text has this:
The dopaminomimetic activity of the products of the invention was studied on the striatal dopaminergic receptors of the mouse according to the technique described by P. PROTAIS and J. COSTENTIN, Journal de Pharmacologie (Paris), 7, 251-255 (1976).
The unilateral lesion of the nigrostriatal dopaminergic neurones induces a hypersensitivity of the receptors of the dopamine at the level of the striatum.
After administration of the products to be studied by the intraperitoneal route, the number of rotations made by the animal is counted for a period of 2 minutes.
The results are expressed in the form of percentage of the variations with respect to the controls not having received the product to be studied.

Data set [4] relates to despair reaction (duration of immobilisation). The data set is described as follows: Despair reaction ("Behavioral Despair"). In kind it is in vivo, female mouse, CDI (Charles River). To be noted: 10 mg/kg i.p., 1 hour before test; immobile time between 2nd and 6th minute. The protocol: This test was carried out on the female mouse, CDI (Charles River), weighing 18 to 23 g, according to the method described by Porsolt (Archives Internationales de Pharmacodynamie, 1977, 229, 327-336). The principle of this test is as follows: when a mouse is placed in a narrow recipient filled with water, it struggles, then, after 2 to 4 mins., it becomes still and floats on its stomach, its back rounded, its rear paws drawn up under its body and it makes only a few movements necessary for holding its head out of the water. This is the so-called despair reaction. Certain psychotherapeutic agents, particularly antidepressants, extend the time during which the mouse struggles. The products to be studied were administered by the i.p. route 1 hour before the test. For the test, the animals are placed in a narrow recipient (10×10×10 cm) filled with water up to a height of 6 cm, the temperature of the water being 24° C.±2° C. The animals are left 6 minutes in the water and the time when the animal remains immobile between the 2nd and the 6th minute is measured--the shorter this time, the more the substance is active. Each substance was studied on a batch of 10 mice. The results are the average of at least two experiments.

For data set [5] the following is noted: cited from earlier work.
Setting [6] is: mice, mortality during 24 hours.

As for `COc1ccc(-c2cc(C)c(NCCN3CCOCC3)nn2)cc1` [CM 30073, reference compound], the LD50 (in general, the dose expected to kill half of the subjects tested) at 24 h in data set [1] (setting [6]) was determined as 19 mg/kg. In addition, in the data set with mice (i.p., mice, minimum dose for which a convulsivant activity begins to show), the Convulsivant threshold dose is 5 mg/kg. Moreover, the “Antagonism of the ptosis induced by reserpine (percentage of animals not presenting ptosis)” value in data set [2] (1 mg/kg i.p.) is listed as 30%; in data set [2] (5 mg/kg i.p.) it was 60%. Also, the “Average number of ipsilateral rotations in 2 minutes, % with respect to controls” value (“Average number … % with respect to controls” below) in data set [3] is 0%.

Compound `Cc1cc(-c2ccccc2)nnc1NCCNCCO` [CM 30311, 3-[2-(2-HYDROXY ETHYLAMINO)ETHYLAMINO]4-METHYL 6-PHENYL PYRIDAZINE, DIHYDROCHLORIDE] had an LD50 at 24 h in data set [1] of over 200 mg/kg. Moreover, the Convulsivant threshold dose in the data set with mice (mouse, in vivo, ip) is reported as 200 mg/kg. Moreover, in data set [3], the “Average number … % with respect to controls” value is on record as -146%.

The compound `Br.Br.Cc1cc(-c2ccc(O)cc2)nnc1NCCN1CCOCC1` [CM 30366, 3-(2-MORPHOLINO ETHYLAMINO)4-METHYL 6-(4-HYDROXY PHENYL)PYRIDAZINE DIHYDROBROMIDE] yielded an LD50 at 24 h in data set [1] of over 200 mg/kg. Besides, the Convulsivant threshold dose with mice (mouse, in vivo, ip) is given as 200 mg/kg. Moreover, in data set [2], the ED50 (commonly the dose at which the effect has come halfway, by size or by number of responders) turned out to be 12 mg/kg. Further, the “"Behavioral Despair" % of reduction of the duration of immobilisation” value in data set [4] was -31%. Moreover, in data set [3], the “Average number … % with respect to controls” value is recorded as -111%.

For the compound `Cc1cc(-c2ccccc2)nnc1N` [CM 30465, 3-AMINO 4-METHYL 6-PHENYL PYRIDAZINE(HYDROCHLORIDE)], the LD50 at 24 h in data set [1] was found to be 226 mg/kg. The compound further yielded a Convulsivant threshold dose with mice (mouse, in vivo, ip) of 200 mg/kg. The 50% effect level in data set [2] (ED50) was put at a dose of 8.6 mg/kg. In addition, the “"Behavioral Despair" % of reduction of the duration of immobilisation” value in data set [4] was -24%. The “Average number … % with respect to controls” value in data set [3] is -89%.

As to `Cc1cc(-c2ccccc2)nnc1NCCN1CCOCC1=O` [CM 30488, 3-[2-(3-OXO 4-MORPHOLINYL)ETHYLAMINO]4-METHYL 6-PHENYL PYRIDAZINE, HYDROCHLORIDE], the LD50 at 24 h in data set [1] is over 300 mg/kg. The Convulsivant threshold dose in the data set with mice (mouse, in vivo, ip) was 300 mg/kg. In data set [2], this compound registered an ED50 of 20 mg/kg. For the same compound, in data set [3], the “Average number … % with respect to controls” value is -90%.

As for `Cc1cc(-c2ccccc2)nnc1NCCN1CCOC(=O)C1` [CM 30489, 3-[2-(2-OXO 4-MORPHOLINYL)ETHYLAMINO]4-METHYL 6-PHENYL PYRIDAZINE, DIHYDROCHLORIDE], the “Average number … % with respect to controls” value in data set [3] is given as -97%.

The compound `Cc1cc(-c2ccccc2)nnc1NCCN1CCOCC1` [Minaprine, reference compound] showed a Convulsivant threshold dose with mice (mouse, in vivo, ip) of 35 mg/kg. In data set [2], this compound came in with a 50% effective dose (ED50) of 5 mg/kg. The “"Behavioral Despair" % of reduction of the duration of immobilisation” value in data set [4] is given as -35%. Besides, the “Average number … % with respect to controls” value in data set [3] is -91%. In addition, in data set [5] (in vivo), the “type of psychotherapeutic action” value is reported as “"disinhibitory" activity”. Further, the “dose above which convulsivant” value in data set [5] (per os) is listed as “higher than 100 mg/kg”.

For the compound `Cc1cc(-c2ccccc2)nnc1NCC[N+]1([O-])CCOCC1` [SR 30490, N-OXIDE of 3-(2-MORPHOLINO ETHYLAMINO 4-METHYL 6-PHENYL PYRIDAZINE], the LD50 at 24 h in data set [1] was over 200 mg/kg. The compound further showed a Convulsivant threshold dose in the data set with mice (mouse, in vivo, ip) of 300 mg/kg. The compound further gave an ED50 in data set [2] of about 50 mg/kg.

Turning to `Cc1cc(-c2ccccc2O)nnc1NCCN1CCOCC1` [SR 95070, 3-(2-morpholinoethylamino)4-methyl 6-(2-hydroxyphenyl)pyridazine], in data set [1] (setting [6]), the LD50 at 24 h is over 200 mg/kg. Besides, the Convulsivant threshold dose with mice (mouse, in vivo, ip) is reported as 200 mg/kg. In addition, in data set [3], the “Average number … % with respect to controls” value is reported as -89%.

As for `Cc1cc(-c2cccc(O)c2)nnc1NCCN1CCOCC1` [SR 95082, 3-(2-morpholinoethylamino)4-methyl 6-(3-hydroxyphenyl)pyridazine], in data set [1] (setting [6]), the 50% lethal dose (LD50) at 24 h is over 200 mg/kg. In the data set on mice (mouse, in vivo, ip), this compound yielded a Convulsivant threshold dose of over 200 mg/kg.

In data set [1] (setting [6]), `CCN(CCO)CCNc1nnc(-c2ccccc2)cc1C` [SR 95084, 3-{2-[N-ethyl(2-hydroxyethylamino)]ethylamino}4-methyl 6-phenyl pyridazine] had an LD50 at 24 h of 100 to 200 mg/kg. The Convulsivant threshold dose in the data set on mice (mouse, in vivo, ip) was 200 mg/kg.

`Cc1cc(-c2ccc(O)cc2)nnc1N` [SR 95087, 3-amino 4-methyl 6-(4-hydroxyphenyl)pyridazine] gave an LD50 at 24 h in data set [1] (setting [6]) of over 200 mg/kg. Further, in the data set on mice (mouse, in vivo, ip), the Convulsivant threshold dose is reported as over 200 mg/kg.
